Assays:
[1] = In vitro metabolism in human hepatocytes; conditions: 100 μM
Method: Cryopreserved human hepatocytes (male) that are prepared by XenoTech, LLC (Lenexa, Kans.), are thawed on the day of use and resuspended in Waymouth's incubation media. The enzymatic activity of hepatocytes is monitored using 7-ethoxycoumarin and 7-hydroxycoumarin as substrates. […] The incubations are carried out for 4 hours with 1×10^6 viable cells/ml. […] At 0 and 4 hour, cell suspensions are extracted using two volumes of ice cold methanol. After centrifugation, the extracts are stored at −20° C. until further sample processing. The solvent in the samples are dried under a stream of nitrogen, and resuspended in methanol:water (1:1) before analysis.
The extracts of the 4 hour incubation mixture are analyzed by liquid chromatography/electrospray ionization-mass spectrometry (LC/ESI-MS) in the positive and negative ion modes to screen for possible metabolites. HPLC Methods 1 and 2 are used to find potential metabolites, and the HPLC and mass spectrometry systems are described in Table 56. The same instrumentation and methods in HPLC Method 1 are used in HPLC Method 2 with the exception that the mobile phases and gradient are changed to 0.4% HCOOH in H2O for mobile A and CH3OH for mobile phase B. The mass spectrometer is LCQ™ Ion Trap Mass Spectrometer and is in either the positive or negative electrospray mode with the ion spray set at 4.5 kV. The capillary temperature is 250° C., the nitrogen sheath gas flow rate is ˜80 unit, the auxiliary nitrogen gas flow rate is 20 unit, and the collision gas is helium.

CYP2C19 = CYP2C19 (Homo sapiens, UniProt P33261); assay: Inhibition of human CYP activity in microsomes: (S)-mephenytoin 4′-hydroxylation; conditions: read-out: IC50, CYP2C19 (S)-Mephenytoin 4′-hydroxylation; pooled human liver microsomes; 10 to 30 min at 37° C.
[2] = test system: FMO, human liver microsome (HLM); assay: FMO dependent metabolism (pre-incubation temperature), human liver microsomes; conditions: HLM, positive control
Method: (§1) The microsomal incubation mixtures (ca. 0.2 mL) were prepared in triplicate in 0.1M potassium phosphate buffer (pH 7.4) containing 0.25 mg/mL microsomal protein (RLM and HLM), 1 mM EDTA, 4 mM MgCl2, and […]. Incubation mixtures were pre-incubated aerobically in a shaking water bath at 37° C. and 45° C. respectively for ca. 5 minutes. The reaction was initiated by the addition of NADPH (final concentration of 1 mM). […] For the positive controls, benzydamine (Sigma-Aldrich, St. Louis, Mo.) (final concentration 200 μM) was used in the incubation mixture. For the negative controls, water was used in the incubation mixtures instead of microsome protein. The mixtures were kept at ca. −20° C. before analysis by LC-MS/MS.
(§2) The incubation of benzydamine (positive control, 200 μM) was carried out concurrently and the formation of benzydamine N-oxide was monitored by LC-MS/MS.

[3] = test system: FMO, rat liver microsome (RLM); assay: FMO dependent metabolism (pre-incubation temperature), rat liver microsomes; conditions: for formation from benzydamine 200 μM, AUC ratio to internal standard (mean ± SD): RLM, positive control
Method: as §1, §2

[4] = NADPH dependent metabolism, human liver microsomes; format: in vitro ADME; conditions: HLM
Method: (§3) Bicifadine (10 μM) was used as the positive control and the formation of the lactam metabolites of bicifadine (M-12) was monitored.

[5] = NADPH dependent metabolism, rat liver microsomes; format: in vitro ADME; conditions: RLM
Method: as §3

[6] = human, in vivo; cited from earlier work
[7] = eight weeks of treatment; cited from earlier work

CYP2C19, sequence (P33261 whole entry): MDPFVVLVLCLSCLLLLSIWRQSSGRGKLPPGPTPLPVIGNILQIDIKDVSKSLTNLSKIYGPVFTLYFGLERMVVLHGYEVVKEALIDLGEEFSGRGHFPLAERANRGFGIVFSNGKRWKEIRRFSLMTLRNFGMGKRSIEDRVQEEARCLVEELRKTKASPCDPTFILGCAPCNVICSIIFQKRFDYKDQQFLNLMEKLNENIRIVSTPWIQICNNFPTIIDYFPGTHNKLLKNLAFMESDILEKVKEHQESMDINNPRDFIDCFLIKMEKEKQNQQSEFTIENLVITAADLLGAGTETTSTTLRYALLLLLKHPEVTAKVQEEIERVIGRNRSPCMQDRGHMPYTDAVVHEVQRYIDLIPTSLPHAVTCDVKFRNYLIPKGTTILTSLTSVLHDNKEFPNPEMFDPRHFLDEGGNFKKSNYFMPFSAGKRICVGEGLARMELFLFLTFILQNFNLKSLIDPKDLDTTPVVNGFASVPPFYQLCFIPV

CCOc1ccc2ccc(=O)oc2c1 [7-ethoxycoumarin, reference compound]
metabolized after 4 hours incubation ([1]; male, human, hepatocytes, 4 h): 68.9%

O=c1ccc2ccc(O)cc2o1 [7-hydroxycoumarin, reference compound]
metabolized after 4 hours incubation ([1]; activity control substrate): 99.1%

CC[C@@]1(c2ccccc2)C(=O)NC(=O)N(Cc2ccccc2)C1=O [(R)-N-3-benzyl-Phenobarb-ital]
IC50 (CYP2C19): 0.3 µM

C[N+](C)([O-])CCCOc1nn(Cc2ccccc2)c2ccccc12 [Benzydamine N-oxide, benzydamine N-oxide]
formation from benzydamine 200 μM, AUC ratio to internal standard (mean ± SD) ([2]; pre-treatment 37° C.): 35.70 ± 0.86 | formation from benzydamine 200 μM, AUC ratio to internal standard (mean ± SD) ([2]; pre-treatment 45° C.): 7.68 ± 1.51 | formation from benzydamine 200 μM, AUC ratio to internal standard (mean ± SD) ([3]; pre-treatment 37° C.): 75.35 ± 0.75 | formation from benzydamine 200 μM, AUC ratio to internal standard (mean ± SD) ([3]; pre-treatment 45° C.): 15.86 ± 1.31

O=C1NC[C@H]2C[C@@]12c1ccc(Cl)c(Cl)c1 [EB-10101 isomer, (1S,5R)-5-(3,4-dichlorophenyl)-3-azabicyclo[3.1.0]hexan-4-one]
area ratio isomer vs EB-10101 [4]: ca. 25 fold | amount formed with 37° C. vs 45° C. pre-treatment ([3]; rat, 30 min, 10 μM, pH 7.4): 7.3 fold | area ratio isomer vs EB-10101 [5]: ~140 fold

COC[C@@H]1[C@@H](c2ccc(Cl)c(Cl)c2)C[C@@H]2CC[C@H]1N2 [GSK372475]
benefit in comparison to placebo [6]: failed to demonstrate a significant benefit in comparison to placebo

N[C@@H]1CC[C@@H](c2ccc(Cl)c(Cl)c2)c2ccccc21 [SEP-289]
primary efficacy endpoint vs placebo (17-item HAM-D) [7]: did not meet the primary efficacy endpoint compared to placebo

From US20160346249A1 (priority 2012, published 2016)
